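All cell lines were grown in 96-well plates and treated with compound for 48 hours. GI50 marks 50% less growth. TGI denotes the concentration required for complete inhibition of growth.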
Experiments:
Test in all cases: growth of human tumour cells (NCI), 48 h
RPMI-8226 leukemia = system: RPMI-8226 leukemia
KM12 colon = system: KM12 colon
HS 578T breast = system: HS 578T breast
SF-268 CNS = system: SF-268 CNS
OVCAR-8 ovarian = system: OVCAR-8 ovarian
SK-OV-3 ovarian = system: SK-OV-3 ovarian
SN12C renal = system: SN12C renal
NCI-H226 lung = system: NCI-H226 lung
SNB-19 CNS = system: SNB-19 CNS
MDA-MB-231 breast = system: MDA-MB-231 breast
HCT-15 colon = system: HCT-15 colon
U251 CNS = system: U251 CNS
PC-3 prostate = system: PC-3 prostate
786-0 renal = system: 786-0 renal
IGROV1 ovarian = system: IGROV1 ovarian
HOP-62 NSCLC = system: HOP-62 NSCLC
UACC-257 melanoma = system: UACC-257 melanoma
OVCAR-5 ovarian = system: OVCAR-5 ovarian
CCRF-CEM leukemia = system: CCRF-CEM leukemia
COLO 205 colon = system: COLO 205 colon
SK-MEL-28 melanoma = system: SK-MEL-28 melanoma
MALME-3M melanoma = system: MALME-3M melanoma
DU-145 prostate = system: DU-145 prostate
ACHN renal = system: ACHN renal
HT29 colon = system: HT29 colon
M14 melanoma = system: M14 melanoma
EKVX NSCLC = system: EKVX NSCLC
SW-620 colon = system: SW-620 colon
SR leukemia = system: SR leukemia
A498 renal = system: A498 renal
MCF7 breast = system: MCF7 breast
NCI-H23 lung = system: NCI-H23 lung
OVCAR-4 ovarian = system: OVCAR-4 ovarian
HCT-116 colon = system: HCT-116 colon
LOX IMVI melanoma = system: LOX IMVI melanoma
MOLT-4 leukemia = system: MOLT-4 leukemia
BT-549 breast = system: BT-549 breast
HCC-2998 colon = system: HCC-2998 colon
UO-31 renal = system: UO-31 renal
UACC-62 melanoma = system: UACC-62 melanoma
RXF 393 renal = system: RXF 393 renal
NCI-H460 lung = system: NCI-H460 lung
NCI-H522 lung = system: NCI-H522 lung
CAKI-1 renal = system: CAKI-1 renal
OVCAR-3 ovarian = system: OVCAR-3 ovarian
K-562 leukemia = system: K-562 leukemia
SF-539 CNS = system: SF-539 CNS
NCI/ADR-RES ovarian = system: NCI/ADR-RES ovarian
SK-MEL-2 melanoma = system: SK-MEL-2 melanoma
HL-60(TB) leukemia = system: HL-60(TB) leukemia
TK-10 renal = system: TK-10 renal
HOP-92 NSCLC = system: HOP-92 NSCLC
A549 NSCLC = system: A549 NSCLC
MDA-MB-435 = system: MDA-MB-435
SNB-75 CNS = system: SNB-75 CNS
SF-295 CNS = system: SF-295 CNS
T-47D breast = system: T-47D breast
SK-MEL-5 melanoma = system: SK-MEL-5 melanoma

Oc1ccccc1N=Cc1c(O)ccc2ccccc12
GI50 (RPMI-8226 leukemia): 2.77 µM | TGI (RPMI-8226 leukemia): 37 µM | GI50 (KM12 colon): 16.5 µM | TGI (KM12 colon): > 100 µM | GI50 (HS 578T breast): 15 µM | TGI (HS 578T breast): > 100 µM | GI50 (SF-268 CNS): 15.8 µM | TGI (SF-268 CNS): 76.8 µM | GI50 (OVCAR-8 ovarian): 18.1 µM | TGI (OVCAR-8 ovarian): 72 µM | GI50 (SK-OV-3 ovarian): 15.9 µM | TGI (SK-OV-3 ovarian): 54.7 µM | GI50 (SN12C renal): 15.4 µM | TGI (SN12C renal): 71.9 µM | GI50 (NCI-H226 lung): 11.5 µM | TGI (NCI-H226 lung): 61.7 µM | GI50 (SNB-19 CNS): 21.8 µM | TGI (SNB-19 CNS): > 100 µM | GI50 (MDA-MB-231 breast): 5.75 µM | TGI (MDA-MB-231 breast): 27.5 µM | GI50 (HCT-15 colon): 15.3 µM | TGI (HCT-15 colon): > 100 µM | GI50 (U251 CNS): 19.8 µM | TGI (U251 CNS): 67.9 µM | GI50 (PC-3 prostate): 7.28 µM | TGI (PC-3 prostate): 66.2 µM | GI50 (786-0 renal): 19.5 µM | TGI (786-0 renal): 68.3 µM | GI50 (IGROV1 ovarian): 4.84 µM | TGI (IGROV1 ovarian): 26.1 µM | GI50 (HOP-62 NSCLC): 17.5 µM | TGI (HOP-62 NSCLC): 97.6 µM | GI50 (UACC-257 melanoma): 15.2 µM | TGI (UACC-257 melanoma): 56.6 µM | GI50 (OVCAR-5 ovarian): 24.6 µM | TGI (OVCAR-5 ovarian): 62.9 µM | GI50 (CCRF-CEM leukemia): 3.2 µM | TGI (CCRF-CEM leukemia): 47.1 µM | GI50 (COLO 205 colon): 30.7 µM | TGI (COLO 205 colon): > 100 µM | GI50 (SK-MEL-28 melanoma): 22.4 µM | TGI (SK-MEL-28 melanoma): 84.5 µM | GI50 (MALME-3M melanoma): 5 µM | TGI (MALME-3M melanoma): 27 µM | GI50 (DU-145 prostate): 19.5 µM | TGI (DU-145 prostate): > 100 µM | GI50 (ACHN renal): 4.96 µM | TGI (ACHN renal): 42.6 µM | GI50 (HT29 colon): 16.4 µM | TGI (HT29 colon): 40.1 µM | GI50 (M14 melanoma): 13.4 µM | TGI (M14 melanoma): 40.2 µM | GI50 (EKVX NSCLC): 15.8 µM | TGI (EKVX NSCLC): 57.8 µM | GI50 (SW-620 colon): 17.3 µM | TGI (SW-620 colon): > 100 µM | GI50 (SR leukemia): 15.3 µM | TGI (SR leukemia): 47.7 µM | GI50 (A498 renal): 5.61 µM | TGI (A498 renal): 23.6 µM | GI50 (MCF7 breast): 8.35 µM | TGI (MCF7 breast): 52.3 µM | GI50 (NCI-H23 lung): 13.8 µM | TGI (NCI-H23 lung): 49.8 µM | GI50 (OVCAR-4 ovarian): 13.4 µM | TGI (OVCAR-4 ovarian): 75.4 µM | GI50 (HCT-116 colon): 13 µM | TGI (HCT-116 colon): 46 µM | GI50 (LOX IMVI melanoma): 10.6 µM | TGI (LOX IMVI melanoma): 45 µM | GI50 (MOLT-4 leukemia): 10.2 µM | TGI (MOLT-4 leukemia): 80.3 µM | GI50 (BT-549 breast): 5.88 µM | TGI (BT-549 breast): 30 µM | GI50 (HCC-2998 colon): 16.5 µM | TGI (HCC-2998 colon): 72.4 µM | GI50 (UO-31 renal): 3.59 µM | TGI (UO-31 renal): 28.3 µM | GI50 (UACC-62 melanoma): 9.78 µM | TGI (UACC-62 melanoma): 38.5 µM | GI50 (RXF 393 renal): 10.6 µM | TGI (RXF 393 renal): 34.6 µM | GI50 (NCI-H460 lung): 10.7 µM | TGI (NCI-H460 lung): 47 µM | GI50 (NCI-H522 lung): 6.73 µM | TGI (NCI-H522 lung): 39.3 µM | GI50 (CAKI-1 renal): 5.61 µM | TGI (CAKI-1 renal): 26.6 µM | GI50 (OVCAR-3 ovarian): 11.9 µM | TGI (OVCAR-3 ovarian): 46.1 µM | GI50 (K-562 leukemia): 15.3 µM | TGI (K-562 leukemia): > 100 µM | GI50 (SF-539 CNS): 14.2 µM | TGI (SF-539 CNS): 39 µM | GI50 (NCI/ADR-RES ovarian): 5.58 µM | TGI (NCI/ADR-RES ovarian): 40.8 µM | GI50 (SK-MEL-2 melanoma): 13.3 µM | TGI (SK-MEL-2 melanoma): 40.5 µM | GI50 (HL-60(TB) leukemia): 4.95 µM | TGI (HL-60(TB) leukemia): 33.3 µM | GI50 (TK-10 renal): 14.2 µM | TGI (TK-10 renal): 66.2 µM | GI50 (HOP-92 NSCLC): 3.17 µM | TGI (HOP-92 NSCLC): 18.5 µM | GI50 (A549 NSCLC): 24.6 µM | TGI (A549 NSCLC): 91.9 µM | GI50 (MDA-MB-435): 17 µM | TGI (MDA-MB-435): 52.6 µM | GI50 (SNB-75 CNS): 10.4 µM | TGI (SNB-75 CNS): 62.5 µM | GI50 (SF-295 CNS): 11.7 µM | TGI (SF-295 CNS): 40.4 µM | GI50 (T-47D breast): 7.5 µM | TGI (T-47D breast): 54.9 µM | GI50 (SK-MEL-5 melanoma): 9.99 µM | TGI (SK-MEL-5 melanoma): 34.7 µM

Source: PubChem BioAssay (NCI)
